Measured values taken from paper PMC4802219, “Improved dialytic removal of protein-bound uraemic toxins with use of albumin binding competitors: an in vitro human whole blood study” (Scientific Reports, 2016).

Columns and labels:
[1] = target: T1, albumin (Homo sapiens, UniProt P02768); test: Static RED assay of PBUT displacement by binding competitors in uraemic plasma; conditions: for displacement of IS and PCS: RED assay (Fig. 1); for increase of free fraction of IS / increase of free fraction of PCS: displacer 1 mmol/l, RED 4 h 37 °C, compared to PBS
T1 construct: from tissue; host or cells: human uraemic plasma
Description: We evaluated the albumin binding of uraemic toxins and their interaction with displacers in human uraemic plasma utilizing the RED device. Candidate displacers were mixed with uraemic plasma before incubation. The test mixture (300 μl) was added into the sample chamber, while the buffer chamber was filled with 500 μl PBS. After 4 hours of incubation (37 °C, 250 rpm), samples were collected from both chambers for HPLC analysis. The concentration of all displacers and negative control (antipyrine) in the incubations was 1 mmol/l. For furosemide, incubations at final concentration of 0.18 mmol/l were also included since this is the clinically relevant concentration for intravenous administration.
(§1) Blood samples were centrifuged at 13200 rpm for 3 mins. The plasma layer was collected and stored at −80 °C. Plasma samples (50 μl) were precipitated with 100 μl of ice-cold acetonitrile to precipitate the proteins. The samples were then vortexed thoroughly and centrifuged at 3000 rpm for 10 minutes. The supernatant, containing the uraemic toxins and displacers, was collected and further diluted 1:1 with deionized water before HPLC injection. The dialysate samples (100 μl) were diluted with 100 μl water before HPLC injection.
(§2) Measurements were calibrated with standard curves for all analytes, and were linear over the concentration range of the experiments. Measurements were performed on an Agilent 1100 system (Agilent Technologies, Dover, DE, USA) equipped with a C18 column (Kinetex 5 μm C18 100 Å, LC Column 150 × 4.6 mm, Phenomenex, Torrance, CA, USA). Mobile phase A: ammonium formate, 20 mmol/l, pH 4. Mobile phase B: acetonitrile. The gradient profile for mobile phase B was: 0–2 min, 15%; 11–14 min, 100%; 14.2–16 min, 15%; and the flow rate gradient was 0–11.2 min, 0.4 ml/min; 11.2–16 min 0.5 ml/min. […] HIPA and furosemide were detected at 230 nm with the UV-Vis detector. The injection volume was 5 μl.
For PBUT displacement in RED assays, Dunnett’s post-analysis comparisons to PBS were performed by one way ANOVA using GraphPad Prism (GraphPad Software, La Jolla, CA).

[2] = design: method as in PMID 973966, PMID 3514052; conditions: cited from earlier work
[3] = target: T1, albumin; test: Static RED assay of IS displacement by ibuprofen with or without furosemide in normal human plasma; type: binding; conditions: normal human plasma spiked with IS 150 μmol/l, ibuprofen 0 to 931 μmol/l, furosemide 0.18 mmol/l (Fig. 3)
[4] = target: T1, albumin; test: Single-pass haemodialysis model with uraemic human whole blood and pre-dialyzer displacer infusion
Description: All experiments were carried out in triplicate.
as §1
as §2, with “acetonitrile.” for “acetonitrile. The gradient profile for mobile phase B was: 0–2 min, 15%; 11–14 min, 100%; 14.2–16 min, 15%; and the flow rate gradient was 0–11.2 min, 0.4 ml/min; 11.2–16 min 0.5 ml/min.”

[5] = intervention phase vs baseline phase, P < 0.0001

T1 sequence (P02768 25-609): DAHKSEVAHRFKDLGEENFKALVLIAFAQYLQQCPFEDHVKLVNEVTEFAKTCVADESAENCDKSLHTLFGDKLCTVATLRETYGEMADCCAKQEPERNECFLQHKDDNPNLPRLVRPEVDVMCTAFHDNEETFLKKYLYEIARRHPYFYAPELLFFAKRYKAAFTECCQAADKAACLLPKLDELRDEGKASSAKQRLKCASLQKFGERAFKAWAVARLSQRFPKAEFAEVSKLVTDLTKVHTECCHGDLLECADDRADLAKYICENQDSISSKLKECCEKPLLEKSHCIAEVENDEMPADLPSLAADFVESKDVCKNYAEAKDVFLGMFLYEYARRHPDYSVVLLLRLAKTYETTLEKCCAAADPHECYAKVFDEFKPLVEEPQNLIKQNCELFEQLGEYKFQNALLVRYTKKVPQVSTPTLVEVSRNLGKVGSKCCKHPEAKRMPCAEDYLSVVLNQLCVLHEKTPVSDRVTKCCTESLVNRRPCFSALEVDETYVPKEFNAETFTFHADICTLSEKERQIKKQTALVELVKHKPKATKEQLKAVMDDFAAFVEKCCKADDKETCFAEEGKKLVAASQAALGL

## Cc1cc(=O)n(-c2ccccc2)n1C [antipyrine]
[1]; uraemic plasma, negative control 1 mmol/l (Figs 1 and 2)
  change in uraemic toxin protein binding: did not lead to a significant change
[2]
  protein binding capability: lacks protein binding capability

## NS(=O)(=O)c1cc(C(=O)O)c(NCc2ccco2)cc1Cl [furosemide]
[1]; furosemide alone at 0.18 mmol/l (Fig. 1)
  increase in the free fraction of IS: did not induce a significant increase
[1]; uraemic plasma
  displacement of IS and PCS: limited displacement effect
  increase of free fraction of IS: ~1.3 fold
  increase of free fraction of PCS: ~1.3 fold
[1]; uraemic plasma, RED assay (Fig. 2)
  displacement of HIPA: significant displacement
[3]
  effect on IS displacement by ibuprofen when given simultaneously: boost the IS displacement effect of ibuprofen

## N[C@@H](Cc1c[nH]c2ccccc12)C(=O)O [tryptophan, L-Tryptophan]
[1]; uraemic plasma
  displacement of IS and PCS: more efficiently than HIPA
  increase of free fraction of IS: ~2 fold
  increase of free fraction of PCS: ~2 fold
[4]; human whole blood, HIPA 400 μmol/l (1 mmol/l with tryptophan) (Fig. 6)
  HIPA removal: virtually unaffected
[4]; human whole blood, IAA 15 μmol/l, Qb 12.5 ml/min, Qd 25 ml/min, mean ± SEM, N = 3
  fractional removal of IAA during displacer infusion: 27.1 ± 0.3%
[4]; human whole blood, IS 150 μmol/l, Qb 12.5 ml/min, Qd 25 ml/min, mean ± SEM, N = 3
  fractional removal of IS during displacer infusion: 10.5 ± 0.1%
[4]; [5]
  increase of IAA removal: 1.3 fold
  increase of IS removal: 1.4 fold
